{
  "source": "paper PMC7026418",
  "about": "“The kinase polypharmacology landscape of clinical PARP inhibitors” (Scientific Reports, 2020)",
  "assay_in_all_cases": "biochemical",
  "set-up_in_all_cases": "DiscoveRx KINOMEscan active site-directed competition binding; percent of control kinase bound to immobilised ligand",
  "key": {"DAPK3": {"biological_target": "DAPK3 (Homo sapiens, UniProt O43293)"}, "EGFR": {"biological_target": "EGFR (Homo sapiens, UniProt P00533)"}, "GRK1": {"biological_target": "T1, GRK1 (Homo sapiens, UniProt Q15835)", "T1 sequence (Q15835 1-563)": "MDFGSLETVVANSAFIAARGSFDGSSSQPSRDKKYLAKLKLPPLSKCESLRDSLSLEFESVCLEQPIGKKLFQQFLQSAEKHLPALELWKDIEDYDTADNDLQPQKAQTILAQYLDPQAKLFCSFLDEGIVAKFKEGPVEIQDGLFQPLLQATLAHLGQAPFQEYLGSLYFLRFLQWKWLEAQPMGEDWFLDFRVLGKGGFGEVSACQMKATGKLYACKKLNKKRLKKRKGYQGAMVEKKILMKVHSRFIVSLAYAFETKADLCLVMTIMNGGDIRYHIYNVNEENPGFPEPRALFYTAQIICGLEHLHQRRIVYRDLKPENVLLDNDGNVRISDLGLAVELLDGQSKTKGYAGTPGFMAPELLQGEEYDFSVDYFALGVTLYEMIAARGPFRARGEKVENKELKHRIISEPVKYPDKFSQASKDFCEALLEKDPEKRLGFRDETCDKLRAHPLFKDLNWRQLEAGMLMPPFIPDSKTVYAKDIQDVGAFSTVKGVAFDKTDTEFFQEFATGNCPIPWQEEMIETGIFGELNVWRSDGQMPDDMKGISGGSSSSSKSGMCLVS"}, "LRRK2(G2019S)": {"biological_target": "LRRK2(G2019S) (Homo sapiens, UniProt Q5S007, G2019S)"}, "NEK4": {"biological_target": "NEK4 (Homo sapiens, UniProt P51957)", "sequence (P51957 whole entry)": "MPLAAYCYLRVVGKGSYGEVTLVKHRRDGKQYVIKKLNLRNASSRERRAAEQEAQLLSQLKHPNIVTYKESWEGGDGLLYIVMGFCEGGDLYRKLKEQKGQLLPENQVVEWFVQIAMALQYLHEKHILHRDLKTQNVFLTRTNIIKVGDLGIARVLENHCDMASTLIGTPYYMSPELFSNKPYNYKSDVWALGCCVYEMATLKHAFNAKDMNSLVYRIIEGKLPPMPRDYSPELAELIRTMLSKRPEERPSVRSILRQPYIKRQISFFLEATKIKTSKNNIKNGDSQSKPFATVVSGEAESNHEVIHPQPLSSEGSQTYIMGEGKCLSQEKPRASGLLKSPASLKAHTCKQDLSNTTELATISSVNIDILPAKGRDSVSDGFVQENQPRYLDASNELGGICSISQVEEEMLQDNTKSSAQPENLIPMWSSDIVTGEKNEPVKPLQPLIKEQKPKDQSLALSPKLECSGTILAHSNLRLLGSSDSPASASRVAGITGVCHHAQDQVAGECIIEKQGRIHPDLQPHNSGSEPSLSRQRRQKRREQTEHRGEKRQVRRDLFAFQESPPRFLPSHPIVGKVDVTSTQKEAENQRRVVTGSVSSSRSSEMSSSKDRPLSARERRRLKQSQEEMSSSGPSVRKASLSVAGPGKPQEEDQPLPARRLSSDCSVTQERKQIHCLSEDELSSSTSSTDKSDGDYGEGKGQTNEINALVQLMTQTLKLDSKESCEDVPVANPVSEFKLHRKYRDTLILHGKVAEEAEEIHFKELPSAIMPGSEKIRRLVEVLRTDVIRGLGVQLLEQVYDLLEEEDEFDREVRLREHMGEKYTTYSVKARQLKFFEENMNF"}, "PAK7": {"biological_target": "T2, PAK7 (Homo sapiens, UniProt Q9P286)", "T2 construct": "gene PAK5"}, "TESK1": {"biological_target": "TESK1 (Homo sapiens, UniProt Q15569)", "sequence (Q15569 whole entry)": "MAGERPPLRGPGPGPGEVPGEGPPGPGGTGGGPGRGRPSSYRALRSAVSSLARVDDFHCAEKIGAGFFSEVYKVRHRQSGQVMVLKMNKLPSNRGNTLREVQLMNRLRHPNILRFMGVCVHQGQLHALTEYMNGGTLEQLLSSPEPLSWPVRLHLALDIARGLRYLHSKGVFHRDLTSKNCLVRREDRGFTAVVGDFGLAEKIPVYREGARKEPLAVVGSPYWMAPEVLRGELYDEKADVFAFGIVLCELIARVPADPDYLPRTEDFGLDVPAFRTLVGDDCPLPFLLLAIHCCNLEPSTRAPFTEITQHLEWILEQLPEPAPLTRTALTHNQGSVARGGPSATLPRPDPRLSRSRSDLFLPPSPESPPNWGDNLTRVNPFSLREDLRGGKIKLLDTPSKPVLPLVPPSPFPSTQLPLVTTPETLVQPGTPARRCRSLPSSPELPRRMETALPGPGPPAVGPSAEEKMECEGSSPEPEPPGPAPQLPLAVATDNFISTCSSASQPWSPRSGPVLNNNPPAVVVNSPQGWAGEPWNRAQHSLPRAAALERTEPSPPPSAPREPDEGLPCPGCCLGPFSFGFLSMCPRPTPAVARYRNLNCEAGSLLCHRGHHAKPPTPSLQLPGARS"}, "TTK": {"biological_target": "T3, TTK (Homo sapiens, UniProt P33981)", "T3 sequence (P33981 1-857)": "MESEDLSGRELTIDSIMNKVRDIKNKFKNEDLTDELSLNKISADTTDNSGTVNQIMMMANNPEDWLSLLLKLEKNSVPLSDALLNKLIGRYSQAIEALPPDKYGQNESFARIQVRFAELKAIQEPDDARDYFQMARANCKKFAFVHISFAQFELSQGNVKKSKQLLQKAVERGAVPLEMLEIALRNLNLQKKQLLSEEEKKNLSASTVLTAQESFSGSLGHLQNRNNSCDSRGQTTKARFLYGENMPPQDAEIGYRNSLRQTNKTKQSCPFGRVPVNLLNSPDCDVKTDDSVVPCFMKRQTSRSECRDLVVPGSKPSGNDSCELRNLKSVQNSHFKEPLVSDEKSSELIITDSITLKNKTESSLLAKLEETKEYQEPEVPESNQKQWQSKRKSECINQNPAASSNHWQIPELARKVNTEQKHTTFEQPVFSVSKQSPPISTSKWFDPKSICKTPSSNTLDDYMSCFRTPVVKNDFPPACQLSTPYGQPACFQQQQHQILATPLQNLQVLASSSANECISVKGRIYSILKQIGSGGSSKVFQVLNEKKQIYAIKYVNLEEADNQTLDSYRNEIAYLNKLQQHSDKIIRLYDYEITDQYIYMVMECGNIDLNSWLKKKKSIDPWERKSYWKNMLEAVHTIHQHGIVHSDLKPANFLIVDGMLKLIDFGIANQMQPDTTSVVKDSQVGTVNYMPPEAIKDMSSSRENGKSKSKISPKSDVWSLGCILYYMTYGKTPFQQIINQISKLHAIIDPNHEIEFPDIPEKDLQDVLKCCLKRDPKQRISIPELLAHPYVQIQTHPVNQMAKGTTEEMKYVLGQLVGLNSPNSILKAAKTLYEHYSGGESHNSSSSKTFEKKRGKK"}, "[1]": {"biological_target": "T4, TYK2(JH1domain-catalytic) (Homo sapiens, UniProt P29597)", "T4 construct": "JH1domain-catalytic", "T4 sequence (P29597 whole entry)": "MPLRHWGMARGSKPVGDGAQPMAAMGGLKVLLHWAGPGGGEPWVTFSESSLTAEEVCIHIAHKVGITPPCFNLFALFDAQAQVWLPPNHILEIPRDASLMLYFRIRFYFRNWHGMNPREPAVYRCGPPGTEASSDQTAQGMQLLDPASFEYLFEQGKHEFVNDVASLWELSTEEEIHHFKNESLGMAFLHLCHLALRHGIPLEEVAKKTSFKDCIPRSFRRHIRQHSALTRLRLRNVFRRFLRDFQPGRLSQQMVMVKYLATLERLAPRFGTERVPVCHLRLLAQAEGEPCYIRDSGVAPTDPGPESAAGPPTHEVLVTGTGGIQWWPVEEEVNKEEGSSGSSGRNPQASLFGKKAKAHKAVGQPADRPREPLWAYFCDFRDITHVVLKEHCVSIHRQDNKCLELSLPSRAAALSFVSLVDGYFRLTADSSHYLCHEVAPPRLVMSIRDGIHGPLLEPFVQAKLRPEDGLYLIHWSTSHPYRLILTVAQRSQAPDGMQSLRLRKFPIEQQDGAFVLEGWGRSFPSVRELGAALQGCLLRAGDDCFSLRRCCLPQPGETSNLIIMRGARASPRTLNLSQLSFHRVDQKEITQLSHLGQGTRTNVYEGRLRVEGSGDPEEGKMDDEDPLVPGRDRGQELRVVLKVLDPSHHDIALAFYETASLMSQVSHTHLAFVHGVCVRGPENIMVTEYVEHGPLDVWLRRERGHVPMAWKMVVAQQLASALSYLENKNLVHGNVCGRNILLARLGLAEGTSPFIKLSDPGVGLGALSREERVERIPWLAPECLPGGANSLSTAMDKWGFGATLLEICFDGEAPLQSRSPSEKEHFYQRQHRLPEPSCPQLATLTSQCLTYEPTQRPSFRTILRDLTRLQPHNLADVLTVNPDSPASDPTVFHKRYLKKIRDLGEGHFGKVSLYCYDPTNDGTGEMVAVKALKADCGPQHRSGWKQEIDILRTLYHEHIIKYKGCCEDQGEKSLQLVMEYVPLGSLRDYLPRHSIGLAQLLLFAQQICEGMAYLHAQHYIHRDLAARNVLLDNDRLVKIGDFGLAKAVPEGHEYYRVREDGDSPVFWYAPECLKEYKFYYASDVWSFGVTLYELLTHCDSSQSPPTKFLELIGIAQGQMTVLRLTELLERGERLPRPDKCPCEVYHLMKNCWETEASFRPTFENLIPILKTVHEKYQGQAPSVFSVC"}, "WNK3": {"biological_target": "WNK3 (Homo sapiens, UniProt Q9BYP7)", "sequence (Q9BYP7 whole entry)": "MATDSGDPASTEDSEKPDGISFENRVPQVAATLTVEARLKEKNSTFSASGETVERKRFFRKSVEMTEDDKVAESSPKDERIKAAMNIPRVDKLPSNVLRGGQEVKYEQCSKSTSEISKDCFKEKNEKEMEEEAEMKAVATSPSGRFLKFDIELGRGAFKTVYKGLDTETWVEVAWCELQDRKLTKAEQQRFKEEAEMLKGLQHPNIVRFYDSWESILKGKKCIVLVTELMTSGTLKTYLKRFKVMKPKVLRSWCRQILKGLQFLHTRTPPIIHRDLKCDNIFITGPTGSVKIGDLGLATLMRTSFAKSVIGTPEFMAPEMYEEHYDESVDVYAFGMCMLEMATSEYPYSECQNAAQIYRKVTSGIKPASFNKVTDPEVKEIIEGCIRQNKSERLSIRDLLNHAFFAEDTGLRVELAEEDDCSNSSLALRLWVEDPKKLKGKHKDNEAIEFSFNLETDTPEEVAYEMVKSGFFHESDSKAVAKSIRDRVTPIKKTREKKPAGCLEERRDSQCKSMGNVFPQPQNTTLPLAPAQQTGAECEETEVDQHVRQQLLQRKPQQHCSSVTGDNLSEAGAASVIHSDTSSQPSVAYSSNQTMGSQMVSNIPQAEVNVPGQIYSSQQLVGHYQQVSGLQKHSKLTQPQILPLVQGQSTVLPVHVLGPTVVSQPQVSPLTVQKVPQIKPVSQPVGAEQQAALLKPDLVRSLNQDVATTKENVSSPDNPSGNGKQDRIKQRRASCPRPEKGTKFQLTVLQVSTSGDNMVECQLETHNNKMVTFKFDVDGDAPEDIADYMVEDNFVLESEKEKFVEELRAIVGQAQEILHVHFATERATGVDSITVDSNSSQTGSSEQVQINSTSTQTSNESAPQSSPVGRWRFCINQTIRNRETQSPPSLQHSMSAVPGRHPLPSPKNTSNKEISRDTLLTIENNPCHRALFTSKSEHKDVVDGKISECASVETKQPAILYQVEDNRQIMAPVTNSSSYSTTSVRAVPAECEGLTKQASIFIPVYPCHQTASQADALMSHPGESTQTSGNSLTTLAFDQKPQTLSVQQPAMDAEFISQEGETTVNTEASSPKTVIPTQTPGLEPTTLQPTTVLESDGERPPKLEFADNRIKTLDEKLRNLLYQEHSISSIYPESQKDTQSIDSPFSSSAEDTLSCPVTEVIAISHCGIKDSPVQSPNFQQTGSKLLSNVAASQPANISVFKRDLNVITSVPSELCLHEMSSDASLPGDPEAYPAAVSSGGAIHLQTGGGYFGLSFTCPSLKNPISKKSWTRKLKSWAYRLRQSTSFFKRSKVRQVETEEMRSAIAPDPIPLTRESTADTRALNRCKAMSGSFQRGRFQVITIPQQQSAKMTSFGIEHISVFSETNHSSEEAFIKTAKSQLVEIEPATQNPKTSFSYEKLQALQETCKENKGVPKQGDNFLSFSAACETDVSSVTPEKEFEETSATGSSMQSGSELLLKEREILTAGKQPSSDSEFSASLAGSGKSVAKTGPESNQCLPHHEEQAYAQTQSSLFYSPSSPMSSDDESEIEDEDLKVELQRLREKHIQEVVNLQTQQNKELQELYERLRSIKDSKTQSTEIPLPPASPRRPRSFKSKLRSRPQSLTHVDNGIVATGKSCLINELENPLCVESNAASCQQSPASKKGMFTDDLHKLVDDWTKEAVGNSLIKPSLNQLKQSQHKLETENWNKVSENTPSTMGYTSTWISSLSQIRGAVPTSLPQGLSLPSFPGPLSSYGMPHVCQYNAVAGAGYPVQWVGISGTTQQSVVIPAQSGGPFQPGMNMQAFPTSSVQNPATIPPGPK"}, "YANK1": {"biological_target": "T5, YANK1 (Homo sapiens, UniProt Q8WU08)", "T5 construct": "gene STK32A", "T5 sequence (Q8WU08 whole entry)": "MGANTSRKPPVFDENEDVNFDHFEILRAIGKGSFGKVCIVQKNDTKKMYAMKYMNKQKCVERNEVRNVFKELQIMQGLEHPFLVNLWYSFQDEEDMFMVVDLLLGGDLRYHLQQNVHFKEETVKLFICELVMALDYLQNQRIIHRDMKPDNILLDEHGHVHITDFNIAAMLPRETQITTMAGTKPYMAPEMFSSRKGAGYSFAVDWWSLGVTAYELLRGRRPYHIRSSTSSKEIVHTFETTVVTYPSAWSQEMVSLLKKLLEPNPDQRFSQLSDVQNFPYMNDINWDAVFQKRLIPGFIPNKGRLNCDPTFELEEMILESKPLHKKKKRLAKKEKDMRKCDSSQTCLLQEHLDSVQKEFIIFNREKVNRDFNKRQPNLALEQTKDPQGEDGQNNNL"}, "[2]": {"conditions": "read-out: Niraparib (MK-4827) / %Ctrl @ 10000nM"}, "[3]": {"conditions": "read-out: Olaparib / %Ctrl @ 10000nM"}, "[4]": {"conditions": "read-out: Rucaparib / %Ctrl @ 10000nM, binding competition, % of control"}, "[5]": {"conditions": "read-out: Talazoparib (BMN 673) / %Ctrl @ 10000nM"}},
  "note": "Read-outs that look alike come from different tables or passages of the source.",
  "data": [
    {"smiles": "NC(=O)c1cccc2cn(-c3ccc([C@@H]4CCCNC4)cc3)nc12", "note": "[Niraparib]", "values": [
      {"measurement": "percent of control binding at 10 µM", "setting": "DAPK3; [2]", "value": 69, "unit": "%"},
      {"measurement": "percent of control binding at 10 µM", "setting": "EGFR; [2]", "value": 67, "unit": "%"},
      {"measurement": "percent of control binding at 10 µM", "setting": "GRK1; [2]", "value": 95, "unit": "%"},
      {"measurement": "percent of control binding at 10 µM", "setting": "LRRK2(G2019S); [2]", "value": 89, "unit": "%"},
      {"measurement": "percent of control binding at 10 µM", "setting": "NEK4; [2]", "value": 82, "unit": "%"},
      {"measurement": "percent of control binding at 10 µM", "setting": "PAK7; [2]", "value": 86, "unit": "%"},
      {"measurement": "percent of control binding at 10 µM", "setting": "TESK1; [2]", "value": 79, "unit": "%"},
      {"measurement": "percent of control binding at 10 µM", "setting": "TTK; [2]", "value": 54, "unit": "%"},
      {"measurement": "percent of control binding at 10 µM", "setting": "[1]; [2]", "value": 96, "unit": "%"},
      {"measurement": "percent of control binding at 10 µM", "setting": "WNK3; [2]", "value": 100, "unit": "%"},
      {"measurement": "percent of control binding at 10 µM", "setting": "YANK1; [2]", "value": 99, "unit": "%"}
    ]},
    {"smiles": "O=C(c1cc(Cc2n[nH]c(=O)c3ccccc23)ccc1F)N1CCN(C(=O)C2CC2)CC1", "note": "[Olaparib]", "values": [
      {"measurement": "percent of control binding at 10 µM", "setting": "DAPK3; [3]", "value": 93, "unit": "%"},
      {"measurement": "percent of control binding at 10 µM", "setting": "EGFR; [3]", "value": 82, "unit": "%"},
      {"measurement": "percent of control binding at 10 µM", "setting": "GRK1; [3]", "value": 91, "unit": "%"},
      {"measurement": "percent of control binding at 10 µM", "setting": "LRRK2(G2019S); [3]", "value": 84, "unit": "%"},
      {"measurement": "percent of control binding at 10 µM", "setting": "NEK4; [3]", "value": 80, "unit": "%"},
      {"measurement": "percent of control binding at 10 µM", "setting": "PAK7; [3]", "value": 100, "unit": "%"},
      {"measurement": "percent of control binding at 10 µM", "setting": "TESK1; [3]", "value": 90, "unit": "%"},
      {"measurement": "percent of control binding at 10 µM", "setting": "TTK; [3]", "value": 90, "unit": "%"},
      {"measurement": "percent of control binding at 10 µM", "setting": "[1]; [3]", "value": 84, "unit": "%"},
      {"measurement": "percent of control binding at 10 µM", "setting": "WNK3; [3]", "value": 88, "unit": "%"},
      {"measurement": "percent of control binding at 10 µM", "setting": "YANK1; [3]", "value": 86, "unit": "%"}
    ]},
    {"smiles": "CNCc1ccc(-c2[nH]c3cc(F)cc4c3c2CCNC4=O)cc1", "note": "[Rucaparib]", "values": [
      {"measurement": "percent of control binding at 10 µM", "setting": "DAPK3; [4]", "value": 24, "unit": "%"},
      {"measurement": "percent of control binding at 10 µM", "setting": "EGFR; [4]", "value": 87, "unit": "%"},
      {"measurement": "percent of control binding at 10 µM", "setting": "GRK1; [4]", "value": 64, "unit": "%"},
      {"measurement": "percent of control binding at 10 µM", "setting": "LRRK2(G2019S); [4]", "value": 87, "unit": "%"},
      {"measurement": "percent of control binding at 10 µM", "setting": "NEK4; [4]", "value": 82, "unit": "%"},
      {"measurement": "percent of control binding at 10 µM", "setting": "PAK7; [4]", "value": 86, "unit": "%"},
      {"measurement": "percent of control binding at 10 µM", "setting": "TESK1; [4]", "value": 98, "unit": "%"},
      {"measurement": "percent of control binding at 10 µM", "setting": "TTK; [4]", "value": 20, "unit": "%"},
      {"measurement": "percent of control binding at 10 µM", "setting": "[1]; [4]", "value": 66, "unit": "%"},
      {"measurement": "percent of control binding at 10 µM", "setting": "WNK3; [4]", "value": 86, "unit": "%"},
      {"measurement": "percent of control binding at 10 µM", "setting": "YANK1; [4]", "value": 69, "unit": "%"}
    ]},
    {"smiles": "Cn1ncnc1[C@H]1c2n[nH]c(=O)c3cc(F)cc(c23)N[C@@H]1c1ccc(F)cc1", "note": "[Talazoparib]", "values": [
      {"measurement": "percent of control binding at 10 µM", "setting": "DAPK3; [5]", "value": 87, "unit": "%"},
      {"measurement": "percent of control binding at 10 µM", "setting": "EGFR; [5]", "value": 85, "unit": "%"},
      {"measurement": "percent of control binding at 10 µM", "setting": "GRK1; [5]", "value": 100, "unit": "%"},
      {"measurement": "percent of control binding at 10 µM", "setting": "LRRK2(G2019S); [5]", "value": 100, "unit": "%"},
      {"measurement": "percent of control binding at 10 µM", "setting": "NEK4; [5]", "value": 100, "unit": "%"},
      {"measurement": "percent of control binding at 10 µM", "setting": "PAK7; [5]", "value": 100, "unit": "%"},
      {"measurement": "percent of control binding at 10 µM", "setting": "TESK1; [5]", "value": 99, "unit": "%"},
      {"measurement": "percent of control binding at 10 µM", "setting": "TTK; [5]", "value": 99, "unit": "%"},
      {"measurement": "percent of control binding at 10 µM", "setting": "[1]; [5]", "value": 94, "unit": "%"},
      {"measurement": "percent of control binding at 10 µM", "setting": "WNK3; [5]", "value": 100, "unit": "%"},
      {"measurement": "percent of control binding at 10 µM", "setting": "YANK1; [5]", "value": 100, "unit": "%"}
    ]}
  ]
}
